Assay results reported in paper PMC3871636 (PLoS ONE, 2013).
Counter-ions that a name gives are not always drawn.

Legend:
[1] = biological target: CYP3A4(C64/C121) mutant (Homo sapiens, UniProt P08684, A121C/C239S/C377S/C468A/C98S/S18F); assay: Ligand-induced spin shift, absorbance titration
Method: (§1) All absorbance and fluorescence assays (including the time-resolved fluorescence measurements) were performed at a protein concentration ≤1 µM at 25°C with continuous stirring. Absorbance spectra were recorded with an S2000 rapid scanning CCD spectrometer (Ocean Optics). Ligand binding assays were done in 100 mM Na-Hepes buffer, pH 7.4, containing 0.5 mM EDTA.
(§2) Absorbance spectra obtained in titration experiments were analyzed with a principal component analysis (PCA) procedure complemented with least-square approximation of the principal vectors with a combination of the prototypical spectra of the CYP3A4 low-spin, high-spin and Type II-substrate-bound ferric CYP3A4 P450 states as described, [31].
(§3) When fitting the results of titration experiments, where the changes in the monitored signal A S (fraction of the enzyme in the high-spin state, intensity or the lifetime of the donor phosphorescence at a given substrate concentration) were assumed to be proportional to [ES], this equation was complemented with the offset A 0 and the scaling factor A max to yield the following relationship: [drawing 5] (Eq.5)

[2] = biological target: wild type CYP3A4 (N-terminally truncated Δ3-12, S18F) (Homo sapiens, UniProt P08684, S18F); assay: Ligand-induced spin shift, absorbance titration
Method: as §1, §2, §3

[3] = biological target: CYP3A4 (double-labeled C64/C468-ER/DY) (Homo sapiens, UniProt P08684, form not given/S18F); assay: Ligand-induced spin shift, absorbance titration; type: binding; details: human, purified double-labeled CYP3A4 C64/C468-ER/DY protein, pH 7.4; read-out: K D or S 50
Method: as §1, §2, §3

[4] = biological target: CYP3A4(C377/C468) mutant (Homo sapiens, UniProt P08684, S18F, form not given); assay: Ligand-induced spin shift, absorbance titration; type: binding; details: C377/C468
Method: as §1, §2, §3

[5] = biological target: CYP3A4(C64/C468) mutant (Homo sapiens, UniProt P08684, S18F, form not given); assay: Ligand-induced spin shift, absorbance titration; type: binding; details: C64/C468
Method: as §1, §2, §3

[6] = biological target: double-labeled CYP3A4 C64/C468-ER/DY (Homo sapiens, UniProt P08684, S18F, form not given); assay: Ligand-induced spin shift, absorbance titration; type: binding; details: (C64/C468)-ER/DY
Method: as §1, §2, §3

[7] = biological target: double-labeled CYP3A4 (C64/C468)-DY/ER (Homo sapiens, UniProt P08684, S18F, form not given); assay: Time-resolved LRET (phosphorescence lifetime measurements); details: for ΔELT (change in LRET efficiency), lifetime measurements / ΔR (change in interprobe distance), lifetime measurements / τ1 (phosphorescence decay time with ligand) / F1 (fraction of first exponential) / τ2 (phosphorescence decay time with ligand) / τav (average phosphorescence lifetime with ligand): (C64/C468)-DY/ER; for ΔELT (change in LRET efficiency), lifetime measurements / ΔR (change in interprobe distance), lifetime measurements: nearly-saturating ligand: ANF 100 µM, bromocriptine 2.5 µM, cholesterol 50 µM; for ΔELT (change in LRET efficiency), lifetime measurements / ΔR (change in interprobe distance), lifetime measurements / τ1 (phosphorescence decay time with ligand) / E (LRET efficiency with ligand), lifetime measurements: testosterone 100 µM; for τ1 (phosphorescence decay time with ligand) / F1 (fraction of first exponential) / τ2 (phosphorescence decay time with ligand) / τav (average phosphorescence lifetime with ligand): Table S1; for τ1 (phosphorescence decay time with ligand) / E (LRET efficiency with ligand), lifetime measurements: 1-PB 40 µM, ANF 100 µM, BCT 2.5 µM, cholesterol 100 µM; for τ1 (phosphorescence decay time with ligand): bi-exponential fit; for F1 (fraction of first exponential) / τ2 (phosphorescence decay time with ligand) / τav (average phosphorescence lifetime with ligand) / R (interprobe distance with ligand), lifetime measurements / ΔR, lifetime measurements: same ligand concentrations; for E (LRET efficiency with ligand), lifetime measurements / R (interprobe distance with ligand), lifetime measurements / ΔR, lifetime measurements: Table S2, C64/C468-DY/ER
Text: (§4) The excitation wavelength was set to 540 nm.

[8] = biological target: double-labeled CYP3A4 (C64/C468)-ER/DY (Homo sapiens, UniProt P08684, S18F, form not given); assay: as above; details: for ΔELT (change in LRET efficiency), lifetime measurements / ΔR (change in interprobe distance), lifetime measurements / τ1 (phosphorescence decay time with ligand) / F1 (fraction of first exponential) / τ2 (phosphorescence decay time with ligand) / τav (average phosphorescence lifetime with ligand): (C64/C468)-ER/DY; for ΔELT (change in LRET efficiency), lifetime measurements / ΔR (change in interprobe distance), lifetime measurements: nearly-saturating ligand: ANF 100 µM, bromocriptine 2.5 µM, cholesterol 50 µM; for ΔELT (change in LRET efficiency), lifetime measurements / ΔR (change in interprobe distance), lifetime measurements / τ1 (phosphorescence decay time with ligand) / E (LRET efficiency with ligand), lifetime measurements: testosterone 100 µM; for τ1 (phosphorescence decay time with ligand) / F1 (fraction of first exponential) / τ2 (phosphorescence decay time with ligand) / τav (average phosphorescence lifetime with ligand): Table S1; for τ1 (phosphorescence decay time with ligand) / E (LRET efficiency with ligand), lifetime measurements: 1-PB 40 µM, ANF 100 µM, BCT 2.5 µM, cholesterol 100 µM; for τ1 (phosphorescence decay time with ligand): bi-exponential fit; for F1 (fraction of first exponential) / τ2 (phosphorescence decay time with ligand) / τav (average phosphorescence lifetime with ligand) / R (interprobe distance with ligand), lifetime measurements / ΔR, lifetime measurements: same ligand concentrations; for E (LRET efficiency with ligand), lifetime measurements / R (interprobe distance with ligand), lifetime measurements / ΔR, lifetime measurements: Table S2, C64/C468-ER/DY
Text: as §4

[9] = biological target: CYP3A4 (double-labeled C64/C468-DY/ER) (Homo sapiens, UniProt P08684, form not given/S18F); assay: Ligand-induced spin shift, absorbance titration; type: binding; details: human, purified double-labeled CYP3A4 C64/C468-DY/ER protein, pH 7.4; read-out: K D or S 50
Method: as §1, §2, §3

[10] = biological target: double-labeled CYP3A4 C64/C468-DY/ER (Homo sapiens, UniProt P08684, S18F, form not given); assay: Ligand-induced spin shift, absorbance titration; type: binding; details: (C64/C468)-DY/ER
Method: as §1, §2, §3

[11] = biological target: CYP3A4 (double-labeled (C64/C468)-ER/DY) (Homo sapiens, UniProt P08684, form not given/S18F); assay: Steady-state LRET titration (delayed emission); type: binding; details: human, purified double-labeled CYP3A4 (C64/C468)-ER/DY protein, pH 7.4; (C64/C468)-ER/DY; LRET titration; read-out: K d, steady-state fluorescence
Method: as §1
Fluorescence-based ligand binding assays were done under anaerobic conditions. Anaerobiosis was achieved using an oxygen-scavenging system consisting of protecatechuate-3,4-dioxygenase (0.5 units/ml) and 5 mM protocatechuic acid. The steady state and time-resolved phosphorescence measurements were performed with the use of a Cary Eclipse fluorescence spectrophotometer (Varian/Agilent Technologies). The excitation wavelength was set to 540 nm. Spectra were taken from 650 to 860 nm with 100 µs delay.
Quantitative interpretation of LRET results was also based on the use of PCA applied to a series of emission spectra normalized on integral intensity. […] Intensity of the donor and acceptor fluorescence obtained in this way were used in determination of the efficiency of steady-state LRET using the equation [drawing 1] (Eq.1) where I ad is emission intensity of the acceptor, I da is the residual donor emission in the presence of acceptor (I da), Φ a and Φ d are the quantum yield of the fluorescence of acceptor and the quantum yield of the phosphorescence of donor, respectively.
Distances were calculated using the equation: [drawing 3] (Eq.3) where R 0 is the Förster distance, and R is the distance between the donor and acceptor. R 0 was calculated with the use of PhotoChemCad software. In these calculations, we used the values of the orientation factor (κ^2) and the refractive index (n) of 0.667 and 1.4, respectively.
as §3

[12] = biological target: CYP3A4 (double-labeled C377/C468-DY/ER) (Homo sapiens, UniProt P08684, form not given/S18F); assay: Ligand-induced spin shift, absorbance titration; type: binding; details: purified double-labeled CYP3A4 C377/C468-DY/ER protein, pH 7.4, read-out: K D or S 50
Method: as §1, §2, §3

CYP3A4(C64/C468) mutant, sequence (P08684 13-503 S18F, form open): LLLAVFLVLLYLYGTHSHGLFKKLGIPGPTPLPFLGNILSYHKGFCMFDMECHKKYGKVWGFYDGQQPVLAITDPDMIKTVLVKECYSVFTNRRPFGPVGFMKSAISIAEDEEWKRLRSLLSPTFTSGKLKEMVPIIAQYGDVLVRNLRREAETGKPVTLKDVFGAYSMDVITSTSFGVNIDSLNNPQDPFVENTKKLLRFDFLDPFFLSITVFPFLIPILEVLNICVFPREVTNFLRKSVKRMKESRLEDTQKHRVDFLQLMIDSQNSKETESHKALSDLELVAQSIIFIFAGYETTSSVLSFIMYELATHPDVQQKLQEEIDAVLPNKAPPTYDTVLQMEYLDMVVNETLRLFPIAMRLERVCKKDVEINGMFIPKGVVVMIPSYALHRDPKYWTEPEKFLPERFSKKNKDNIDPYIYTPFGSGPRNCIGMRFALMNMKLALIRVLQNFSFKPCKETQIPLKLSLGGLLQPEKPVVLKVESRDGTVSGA
CYP3A4(C377/C468) mutant, sequence (P08684 13-503 S18F, form open): as above
double-labeled CYP3A4 (C64/C468)-DY/ER, sequence (P08684 13-503 S18F, form open): as above
double-labeled CYP3A4 (C64/C468)-ER/DY, sequence (P08684 13-503 S18F, form open): as above
wild type CYP3A4 (N-terminally truncated Δ3-12, S18F), sequence (P08684 with tags, fused parts or gaps S18F): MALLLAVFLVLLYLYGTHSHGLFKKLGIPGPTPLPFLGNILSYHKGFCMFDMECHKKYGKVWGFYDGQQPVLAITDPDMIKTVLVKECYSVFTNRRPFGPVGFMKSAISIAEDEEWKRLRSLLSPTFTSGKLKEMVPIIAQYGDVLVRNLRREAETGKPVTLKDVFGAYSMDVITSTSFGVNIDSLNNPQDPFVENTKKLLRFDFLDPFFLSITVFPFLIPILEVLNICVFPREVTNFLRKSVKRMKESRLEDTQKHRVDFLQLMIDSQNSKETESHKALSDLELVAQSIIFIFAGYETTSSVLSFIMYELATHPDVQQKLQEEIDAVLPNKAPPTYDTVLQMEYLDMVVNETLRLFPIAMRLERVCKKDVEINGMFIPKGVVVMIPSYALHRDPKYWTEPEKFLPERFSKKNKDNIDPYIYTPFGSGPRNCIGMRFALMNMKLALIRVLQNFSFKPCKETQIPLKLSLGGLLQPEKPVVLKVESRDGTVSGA
CYP3A4(C64/C121) mutant, sequence (P08684 with tags, fused parts or gaps S18F/C98S/A121C/C239S/C377S/C468A limits assumed): as the sequence (P08684 with tags, fused parts or gaps S18F) above, with C88S, A111C, C229S, C367S, C458A counted along it
CYP3A4 (double-labeled C64/C468-ER/DY), sequence (P08684 13-503 S18F, form open): as the sequence (P08684 13-503 S18F, form open) above
double-labeled CYP3A4 C64/C468-ER/DY, sequence (P08684 13-503 S18F, form open): as above
double-labeled CYP3A4 C64/C468-DY/ER, sequence (P08684 13-503 S18F, form open): as above
CYP3A4 (double-labeled (C64/C468)-ER/DY), sequence (P08684 13-503 S18F, form open): as above
CYP3A4 (double-labeled C377/C468-DY/ER), sequence (P08684 13-503 S18F, form open): as above
CYP3A4 (double-labeled C64/C468-DY/ER), sequence (P08684 13-503 S18F, form open): as above

Compound: OCCCCc1ccc2ccc3cccc4ccc1c2c34 [1-PB, 1-pyrenebutanol]
- Kd [1]: 16 ± 8 µM
- Nh (Hill coefficient) ([1]; C64/C121): 1.3±0.5
- ΔF HS (amplitude of ligand-induced spin shift) ([1]; C64/C121): 17±10%
- Kd [2]: 9.5 ± 0.9 µM
- Nh (Hill coefficient) ([2]; W/T): 1.6±0.4
- ΔF HS (amplitude of ligand-induced spin shift) ([2]; W/T): 50±1%
- Kd [3]: 5.4 ± 2.1 µM
- Nh (Hill coefficient) [4]: 1.2±0.2
- ΔF HS (amplitude of ligand-induced spin shift) [4]: 29±9%
- Nh (Hill coefficient) [5]: 1.2±0.1
- ΔF HS (amplitude of ligand-induced spin shift) [5]: 43±5%
- Nh (Hill coefficient) [6]: 1.3±0.1
- ΔF HS (amplitude of ligand-induced spin shift) [6]: 18±2%
- ΔELT (change in LRET efficiency), lifetime measurements [7]: +3.8±1%
- ΔR (change in interprobe distance), lifetime measurements [7]: −0.9±0.1 Å
- τ1 (phosphorescence decay time with ligand) [7]: 53 ± 1 µs
- F1 (fraction of first exponential) [7]: 46 ± 3%
- τ2 (phosphorescence decay time with ligand) [7]: 195 ± 7 µs
- τav (average phosphorescence lifetime with ligand) [7]: 129 ± 1 µs
- E (LRET efficiency with ligand), lifetime measurements [7]: 45 ± 1%
- R (interprobe distance with ligand), lifetime measurements [7]: 35.8 ± 0.1 Å
- ΔR, lifetime measurements [7]: -0.9 ± 0.1 Å
- ΔELT (change in LRET efficiency), lifetime measurements [8]: −1.5±1%
- ΔR (change in interprobe distance), lifetime measurements [8]: 0.4±0.1 Å
- τ1 (phosphorescence decay time with ligand) [8]: 63 ± 2 µs
- F1 (fraction of first exponential) [8]: 60 ± 8%
- τ2 (phosphorescence decay time with ligand) [8]: 241 ± 5 µs
- τav (average phosphorescence lifetime with ligand) [8]: 138 ± 4 µs
- E (LRET efficiency with ligand), lifetime measurements [8]: 41 ± 1%
- R (interprobe distance with ligand), lifetime measurements [8]: 36.7 ± 0.1 Å
- ΔR, lifetime measurements [8]: 0.4 ± 0.1 Å

Compound: O=c1cc(-c2ccccc2)oc2c1ccc1ccccc12 [ANF, α-naphthoflavone]
- Kd [1]: 8.6 ± 1.6 µM
- Nh (Hill coefficient) ([1]; human, pH 7.4): 1.3±0.4
- ΔF HS (amplitude of ligand-induced spin shift) ([1]; human, pH 7.4): 19±4%
- Kd [2]: 7.4 ± 1.6 µM
- Nh (Hill coefficient) ([2]; human, pH 7.4): 1.9±0.3
- ΔF HS (amplitude of ligand-induced spin shift) ([2]; human, pH 7.4): 41±1%
- Kd [9]: 4.2 ± 0.9 µM
- Nh (Hill coefficient) [4]: 1.4±0.2
- ΔF HS (amplitude of ligand-induced spin shift) [4]: 24±12%
- Nh (Hill coefficient) [5]: 1.8±0.2
- ΔF HS (amplitude of ligand-induced spin shift) [5]: 39±8%
- Nh (Hill coefficient) [10]: 1.5±0.1
- ΔF HS (amplitude of ligand-induced spin shift) [10]: 13±1%
- Kd [11]: 17.3 ± 7.2 µM
- ΔELT (change in LRET efficiency), lifetime measurements [7]: −6.8±3%
- ΔR (change in interprobe distance), lifetime measurements [7]: 1.8±0.7 Å
- τ1 (phosphorescence decay time with ligand) [7]: 54 ± 1 µs
- F1 (fraction of first exponential) [7]: 45 ± 5%
- τ2 (phosphorescence decay time with ligand) [7]: 231 ± 15 µs
- τav (average phosphorescence lifetime with ligand) [7]: 154 ± 4 µs
- E (LRET efficiency with ligand), lifetime measurements [7]: 34 ± 2%
- R (interprobe distance with ligand), lifetime measurements [7]: 38.6 ± 0.5 Å
- ΔR, lifetime measurements [7]: 1.8 ± 0.5 Å
- ΔELT (change in LRET efficiency), lifetime measurements [8]: −14.5±1%
- ΔR (change in interprobe distance), lifetime measurements [8]: 4.1±0.2 Å
- τ1 (phosphorescence decay time with ligand) [8]: 53 ± 2 µs
- F1 (fraction of first exponential) [8]: 34 ± 1%
- τ2 (phosphorescence decay time with ligand) [8]: 216 ± 3 µs
- τav (average phosphorescence lifetime with ligand) [8]: 168 ± 1 µs
- E (LRET efficiency with ligand), lifetime measurements [8]: 28 ± 1%
- R (interprobe distance with ligand), lifetime measurements [8]: 40.4 ± 0.1 Å
- ΔR, lifetime measurements [8]: 4.1 ± 0.1 Å

Compound: CC(C)C[C@H]1C(=O)N2CCC[C@H]2[C@]2(O)O[C@](NC(=O)[C@@H]3C=C4c5cccc6[nH]c(Br)c(c56)C[C@H]4N(C)C3)(C(C)C)C(=O)N12 [Bromocriptine, Bromocriptine mesylate]
- Kd [12]: 0.93 ± 0.6 µM
- Kd [3]: 0.28 ± 0.1 µM
- ΔR (change in interprobe distance), lifetime measurements [7]: 0.3±1.0 Å
- τ1 (phosphorescence decay time with ligand) [7]: 55 ± 9 µs
- F1 (fraction of first exponential) [7]: 44 ± 5%
- τ2 (phosphorescence decay time with ligand) [7]: 209 ± 20 µs
- τav (average phosphorescence lifetime with ligand) [7]: 141 ± 7 µs
- R (interprobe distance with ligand), lifetime measurements [7]: 37.1 ± 0.8 Å
- ΔR, lifetime measurements [7]: 0.3 ± 0.8 Å
- ΔR (change in interprobe distance), lifetime measurements [8]: −0.3±0.6 Å
- τ1 (phosphorescence decay time with ligand) [8]: 39 ± 12 µs
- F1 (fraction of first exponential) [8]: 28 ± 5%
- τ2 (phosphorescence decay time with ligand) [8]: 168 ± 2 µs
- τav (average phosphorescence lifetime with ligand) [8]: 131 ± 5 µs
- R (interprobe distance with ligand), lifetime measurements [8]: 36.0 ± 0.5 Å
- ΔR, lifetime measurements [8]: -0.3 ± 0.5 Å
